Data: patent US9497970B2, “Pesticide compounds” (priority 2013, dated 2016)

Experiments:
Assay type in all cases: in vivo
[1] = system: Diamond Back Moth (Plutella xylostella); assay: B.1 Diamond Back Moth (Plutella xylostella), cabbage leaf dip; settings: foliar, 500 ppm, 3rd instar larvae on dipped cabbage leaves, 72 hours after treatment, in comparison with untreated controls, read-out: mortality
Procedure, shortened: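 Cabbage leaves dipped in compound in 1:1 water:acetone with 0.01% Kinetic HV surfactant, air-dried, then infested with ten 3rd-instar larvae on moist filter paper. Mortality scored at 72 h after treatment; feeding damage rated on a 0-100% scale.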

[2] = system: Boll Weevil (Anthonomus grandis); assay: B.3 Boll Weevil (Anthonomus grandis), microtiter plate insect diet; settings: 120 h, 800 ppm, sprayed onto insect diet, 5 days, in comparison with untreated controls, read-out: mortality (egg and larval)
Procedure, shortened: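 Compounds in 25% DMSO/water sprayed at several concentrations onto insect diet in microtiter wells holding 5–10 A. grandis eggs, two replicates. Plates kept 5 days at about 25±1 °C and 75±5% RH. Egg and larval mortality scored visually.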

[3] = system: Silverleaf Whitefly (Bemisia argentifoli); assay: B.5 Silverleaf Whitefly (Bemisia argentifoli), sprayed cotton plants; settings: 72 h, whitefly adults on sprayed cotton plants, 3 days after treatment, in comparison with untreated controls
Procedure: B.5 Silverleaf Whitefly (Bemisia argentifoli)
The active compounds were formulated by a Tecan liquid handler in 100% cyclohexanone as a 10,000 ppm solution supplied in tubes. The 10,000 ppm solution was serially diluted in 100% cyclohexanone to make interim solutions. These served as stock solutions for which final dilutions were made by the Tecan in 50% acetone:50% water (v/v) into 5 or 10 ml glass vials. A nonionic surfactant (Kinetic®) was included in the solution at a volume of 0.01% (v/v). The vials were then inserted into an automated electrostatic sprayer equipped with an atomizing nozzle for application to plants/insects.
Cotton plants at the cotyledon stage (one plant per pot) were sprayed by an automated electrostatic plant sprayer equipped with an atomizing spray nozzle. The plants were dried in the sprayer fume hood and then removed from the sprayer. Each pot was placed into a plastic cup and about 10 to 12 whitefly adults (approximately 3-5 days old) were introduced. The insects were collected using an aspirator and a nontoxic Tygon® tubing connected to a barrier pipette tip. The tip, containing the collected insects, was then gently inserted into the soil containing the treated plant, allowing insects to crawl out of the tip to reach the foliage for feeding. Cups were covered with a reusable screened lid. Test plants were maintained in a growth room at about 25° C. and about 20-40% relative humidity for 3 days, avoiding direct exposure to fluorescent light (24 hour photoperiod) to prevent trapping of heat inside the cup. Mortality was assessed 3 days after treatment, compared to untreated control plants.

[4] = system: Mediterranean Fruitfly (Ceratitis capitata); assay: B.6 Mediterranean Fruitfly (Ceratitis capitata), microtiter plate insect diet; settings: 120 h, 800 ppm, sprayed onto insect diet, 5 days, in comparison with untreated controls, read-out: mortality (egg and larval)
Procedure, shortened: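 Insect diet with 50-80 C. capitata eggs sprayed with compounds formulated in 75% water/25% DMSO, at different concentrations, two replications. Incubation at about 28±1° C and 80±5% relative humidity for 5 days, then egg and larval mortality assessed visually.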

[5] = system: Tobacco Budworm (Heliothis virescens); assay: B.7 Tobacco Budworm (Heliothis virescens) I, microtiter plate insect diet; settings: 120 h, 800 ppm, sprayed onto insect diet, 5 days, in comparison with untreated controls, read-out: mortality (egg and larval)
Procedure, shortened: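 96-well plates with insect diet and 15-25 H. virescens eggs; compounds in 75% water/25% DMSO sprayed onto diet at several concentrations, two replicates. Plates held at about 28±1° C. and 80±5% relative humidity for 5 days, then egg and larval mortality scored visually.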

[6] = system: Southern Armyworm (Spodoptera eridania), 2nd Instar Larvae; assay: B.10 Southern Armyworm (Spodoptera eridania), 2nd Instar Larvae, sprayed lima bean plants; settings: 96 h, 300 ppm, larvae on sprayed lima bean plants, 4 days after treatment, in comparison with untreated controls, read-out: mortality
Procedure, shortened: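 Lima bean plants at 1st true leaf stage sprayed electrostatically with compound in 50% acetone:50% water plus 0.01% nonionic surfactant, then infested with about 10 to 11 2nd instar larvae. Mortality and reduced feeding assessed 4 days after treatment at about 25° C versus untreated plants.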

[7] = system: Yellow Fever Mosquito (Aedes aegypti); assay: whole plant or invertebrate; settings: 48 h, freshly hatched larvae in tap water, 2 days, in comparison with untreated controls, read-out: mortality (larval)
Procedure, shortened: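 Freshly hatched A. aegypti larvae, 5–15 per well, were held in 200 μl tap water. Compounds formulated in 75:25 water:DMSO were sprayed at various concentrations, 2.5 μl per well by micro-atomizer, in two replicates.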

[8] = system: Orchid thrips (dichromothrips corbetti); assay: B.12 Orchid thrips (dichromothrips corbetti), floral-immersion technique; settings: adult thrips on dipped orchid petals, 72 hours after treatment, in comparison with untreated controls
Procedure, shortened: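 Whole orchid flower petals were dipped in compound in 1:1 acetone:water with 0.01% v/v Kinetic HV, dried, and enclosed with about 20 adult thrips. They were held under continuous light at about 28° C. Live thrips were counted and percent mortality recorded at 72 hours.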

[9] = system: Green Peach Aphid (Myzus persicae); assay: B.9 Green Peach Aphid (Myzus persicae), sprayed bell pepper plants; settings: 120 h, infested bell pepper plants sprayed, after 5 days, in comparison with untreated controls
Procedure: B.9 Green Peach Aphid (Myzus persicae)
The active compounds were formulated by a Tecan liquid handler in 100% cyclohexa none as a 10,000 ppm solution supplied in tubes. The 10,000 ppm solution was serially diluted in 100% cyclohexanone to make interim solutions. These served as stock solutions for which final dilutions were made by the Tecan in 50% acetone:50% water (v/v) into 5 or 10 ml glass vials. A nonionic surfactant (Kinetic®) was included in the solution at a volume of 0.01% (v/v). The vials were then inserted into an automated electrostatic sprayer equipped with an atomizing nozzle for application to plants/insects.
Bell pepper plants at the first true-leaf stage were infested prior to treatment by placing heavily infested leaves from the main colony on top of the treatment plants. Aphids were allowed to transfer overnight to accomplish an infestation of 30-50 aphids per plant and the host leaves were removed. The infested plants were then sprayed by an automated electrostatic plant sprayer equipped with an atomizing spray nozzle. The plants were dried in the sprayer fume hood, removed, and then maintained in a growth room under fluorescent lighting in a 24-hr photoperiod at about 25° C. and about 20-40% relative humidity. Aphid mortality on the treated plants, relative to mortality on untreated control plants, was determined after 5 days.

CC(C)c1ccccc1N1CCCSC1=NN=Cc1ccc2c(ccc3c2ncn3-c2ccc(OC(F)(F)F)cc2)c1 (stereo in doubt) [C-55, (Z)-3-(2-isopropylphenyl)-2-((E)-((3-(4-(trifluoromethoxy)phenyl)-3H-naphtho[1,2-d]imidazol-7-yl)methylene)hydrazono)-1,3-thiazinane]
≥ 75%: mortality at 500 ppm [1] | mortality at 800 ppm [2] | mortality at 300 ppm [3] | mortality at 800 ppm [4] | mortality at 800 ppm [5] | mortality at 300 ppm [6] | mortality at 800 ppm [7] | mortality at 500 ppm [8]

CCc1ccccc1NC(=S)N/N=C/c1ccc2c(c1)CCc1c-2cnn1-c1ccc(OC(F)(F)F)cc1 [C-19, 1-(2-ethylphenyl)-3-[[3-[4-(trifluoromethoxy)phenyl]-5,8-dihydro-4H-benzo[e]indazol-7-ylidene]methylimino]thiourea]
≥ 75%: mortality at 300 ppm [3]

FC(F)(F)Oc1ccc(-n2cnc3c4ccc(/C=N/NC(=S)Nc5ccccc5C(F)(F)F)cc4ccc32)cc1 [C-24, 1-[[3-[4-(trifluoromethoxy)phenyl]-9aH-benzo[e]benzimidazol-7-ylidene]methylimino]-3-[2-(trifluoromethyl)phenyl]isothiourea]
≥ 75%: mortality at 500 ppm [1] | mortality at 800 ppm [2] | mortality at 300 ppm [3] | mortality at 800 ppm [4] | mortality at 500 ppm [8]

CC(C)c1ccccc1N1C(=O)CS/C1=N\N=C\c1ccc2c(ccc3c2ncn3-c2ccc(OC(F)(F)F)cc2)c1 [C-51]
≥ 75%: mortality at 500 ppm [1] | mortality at 800 ppm [2] | mortality at 300 ppm [3] | mortality at 800 ppm [4] | mortality at 800 ppm [5] | mortality at 800 ppm [9] | mortality at 300 ppm [6] | mortality at 800 ppm [7] | mortality at 500 ppm [8]

CS/C(=N\N=C\c1ccc2c(ccc3c2ncn3-c2ccc(OC(F)(F)F)cc2)c1)Nc1ccccc1C(C)C [C-52, (1Z,N′E)-methyl N-2-isopropylphenyl-N′-((3-(4-(trifluoromethoxy)phenyl)-3H-naphtho[1,2-d]imidazol-7-yl)methylene)carbamohydrazonothioate]
≥ 75%: mortality at 500 ppm [1] | mortality at 800 ppm [2] | mortality at 300 ppm [3] | mortality at 800 ppm [4] | mortality at 800 ppm [5] | mortality at 800 ppm [9] | mortality at 300 ppm [6] | mortality at 500 ppm [8]

CCc1cccc(CC)c1NC(=S)N/N=C/c1ccc2c(ccc3c2ncn3-c2ccc(OC(F)(F)F)cc2)c1 [C-70, 1-(2,6-diethylphenyl)-3-[(E)-[3-[4-(trifluoromethoxy)phenyl]benzo[e]benzimidazol-7-yl]methyleneamino] thiourea]
≥ 75%: mortality at 500 ppm [1] | mortality at 800 ppm [2] | mortality at 300 ppm [3] | mortality at 800 ppm [5] | mortality at 800 ppm [9] | mortality at 300 ppm [6] | mortality at 800 ppm [7] | mortality at 500 ppm [8]

Cc1cccc(Cl)c1NC(=S)N/N=C/c1ccc2c(ccc3c2ncn3-c2ccc(SC(F)(F)F)cc2)c1 [C-74, 1-(2-chloro-6-methyl-phenyl)-3-[(E)-[3-[4-(trifluoromethylsulfanyl)phenyl]benzo[e]benzimidazol-7-yl]methyleneamino]thiourea]
≥ 75%: mortality at 500 ppm [1] | mortality at 800 ppm [2] | mortality at 300 ppm [3] | mortality at 800 ppm [4] | mortality at 800 ppm [5] | mortality at 300 ppm [6] | mortality at 800 ppm [7]

CCc1cccc(C)c1NC(=S)N/N=C/c1ccc2c(ccc3c2ncn3-c2ccc(C(F)(F)F)cc2)c1 [C-78, 1-(2-ethyl-6-methyl-phenyl)-3-[(E)-[3-[4-(trifluoromethyl)phenyl]benzo[e]benzimidazol-7-yl]methyleneamino] thiourea]
≥ 75%: mortality at 500 ppm [1] | mortality at 800 ppm [2] | mortality at 300 ppm [3] | mortality at 800 ppm [4] | mortality at 800 ppm [5] | mortality at 300 ppm [6] | mortality at 500 ppm [8]

O=C(N/N=C/c1ccc2c(ccc3c2ncn3-c2ccc(OC(F)(F)F)cc2)c1)Nc1ccccc1Cl [C-100, 3-(2-chlorophenyl)-1-[[3-[4-(trifluoromethoxy)phenyl]-8H-benzo[e]benzimidazol-7-ylidene]methylimino] isourea]
≥ 75%: mortality at 300 ppm [3]

CSc1cccc(C)c1NC(=S)N/N=C/c1ccc2c(ccc3c2ncn3-c2ccc(OC(F)(F)F)cc2)c1 [C-103, 1-(2-methyl-6-methylsulfanyl-phenyl)-3-[(E)-[3-[4-(trifluoromethoxy)phenyl]benzo[e]benzimidazol-7-yl]methyleneamino]thiourea]
≥ 75%: mortality at 500 ppm [1] | mortality at 800 ppm [2] | mortality at 300 ppm [3] | mortality at 800 ppm [4] | mortality at 800 ppm [5] | mortality at 300 ppm [6] | mortality at 800 ppm [7] | mortality at 500 ppm [8]

Cc1cccc(C)c1NC(=S)N/N=C/c1ccc2c(ccc3c2ncn3-c2ccc(C(F)(F)F)cn2)c1 [C-109, 1-(2,6-dimethylphenyl)-3-[(E)-[3-[5-(trifluoromethyl)-2-pyridyl]benzo[e]benzimidazol-7-yl]methyleneamino] thiourea]
≥ 75%: mortality at 500 ppm [1] | mortality at 800 ppm [2] | mortality at 300 ppm [3] | mortality at 800 ppm [4] | mortality at 800 ppm [5] | mortality at 800 ppm [9] | mortality at 800 ppm [7]
